Laboratory results taken from article PMC8459971, “Evaluation of the hepatotoxicity of the novel GPR40 (FFAR1) agonist CPL207280 in the rat and monkey” (PLoS ONE, 2021).
“And” between values parts separate entries of the source, which are not always exact repeats. Equal entries are not always repeated.

What was measured:
[1] = target: T1, OATP1B1 (Homo sapiens, UniProt Q9Y6L6); test: Uptake transporter inhibition assay, OATP1B1
T1 sequence (Q9Y6L6 1-691): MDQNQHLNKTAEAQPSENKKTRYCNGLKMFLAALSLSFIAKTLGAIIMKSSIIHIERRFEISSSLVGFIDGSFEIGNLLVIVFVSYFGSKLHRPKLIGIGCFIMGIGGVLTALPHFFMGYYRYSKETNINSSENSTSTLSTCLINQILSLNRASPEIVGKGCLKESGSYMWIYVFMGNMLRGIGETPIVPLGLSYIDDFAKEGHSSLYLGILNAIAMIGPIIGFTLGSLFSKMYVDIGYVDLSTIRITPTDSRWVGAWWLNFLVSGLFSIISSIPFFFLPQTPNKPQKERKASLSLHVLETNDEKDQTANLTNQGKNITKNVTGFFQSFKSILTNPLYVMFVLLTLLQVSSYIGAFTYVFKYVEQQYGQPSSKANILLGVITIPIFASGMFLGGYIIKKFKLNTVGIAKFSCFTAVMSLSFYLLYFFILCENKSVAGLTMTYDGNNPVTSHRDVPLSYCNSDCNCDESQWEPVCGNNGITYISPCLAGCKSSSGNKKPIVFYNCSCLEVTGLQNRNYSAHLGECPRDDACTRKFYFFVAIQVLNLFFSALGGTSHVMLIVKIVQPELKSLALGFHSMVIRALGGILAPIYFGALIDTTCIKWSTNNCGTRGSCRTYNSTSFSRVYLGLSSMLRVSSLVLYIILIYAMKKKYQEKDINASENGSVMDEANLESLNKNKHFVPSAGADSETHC
Description: For the uptake transporter inhibition assay, cells were washed twice with 100 μL of the appropriate buffer (HK, pH 7.4) for OATP1B1, followed by HBSS (pH 7.4) for (NTCP, OAT1, OAT2v1, OATP1A2, and OATP1B3). Uptake experiments were carried out at 37 ± 1°C in 50 μL of the respective buffer containing the probe substrate and the compound or solvent. […] After the experiment, cells were washed twice with 100 μL of cold appropriate buffer and lysed with 50 μL of 0.1 M NaOH. Radiolabeled probe substrate transport was determined by measuring an aliquot (35 μL) from each well for liquid scintillation counting.

[2] = target: T2, MRP4 (Homo sapiens, UniProt O15439); test: Vesicular transport inhibition assay, MRP4; settings: for Accumulation (counts per minute; CPM) with AMP / Accumulation (counts per minute; CPM) with ATP: MRP4;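 further: membrane vesicles with MRP4 incubated with compound and probe substrate plus 4 mM ATP, or AMP as passive-diffusion background, vesicular substrate uptake read by liquid scintillation counting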;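 on Accumulation (counts per minute; CPM) with AMP: ATP 4 mM vs AMP background separates transporter uptake from diffusion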;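 on Accumulation (counts per minute; CPM) with ATP: ATP 4 mM vs AMP background separates transporter uptake from diffusion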
T2 sequence (O15439 1-1325): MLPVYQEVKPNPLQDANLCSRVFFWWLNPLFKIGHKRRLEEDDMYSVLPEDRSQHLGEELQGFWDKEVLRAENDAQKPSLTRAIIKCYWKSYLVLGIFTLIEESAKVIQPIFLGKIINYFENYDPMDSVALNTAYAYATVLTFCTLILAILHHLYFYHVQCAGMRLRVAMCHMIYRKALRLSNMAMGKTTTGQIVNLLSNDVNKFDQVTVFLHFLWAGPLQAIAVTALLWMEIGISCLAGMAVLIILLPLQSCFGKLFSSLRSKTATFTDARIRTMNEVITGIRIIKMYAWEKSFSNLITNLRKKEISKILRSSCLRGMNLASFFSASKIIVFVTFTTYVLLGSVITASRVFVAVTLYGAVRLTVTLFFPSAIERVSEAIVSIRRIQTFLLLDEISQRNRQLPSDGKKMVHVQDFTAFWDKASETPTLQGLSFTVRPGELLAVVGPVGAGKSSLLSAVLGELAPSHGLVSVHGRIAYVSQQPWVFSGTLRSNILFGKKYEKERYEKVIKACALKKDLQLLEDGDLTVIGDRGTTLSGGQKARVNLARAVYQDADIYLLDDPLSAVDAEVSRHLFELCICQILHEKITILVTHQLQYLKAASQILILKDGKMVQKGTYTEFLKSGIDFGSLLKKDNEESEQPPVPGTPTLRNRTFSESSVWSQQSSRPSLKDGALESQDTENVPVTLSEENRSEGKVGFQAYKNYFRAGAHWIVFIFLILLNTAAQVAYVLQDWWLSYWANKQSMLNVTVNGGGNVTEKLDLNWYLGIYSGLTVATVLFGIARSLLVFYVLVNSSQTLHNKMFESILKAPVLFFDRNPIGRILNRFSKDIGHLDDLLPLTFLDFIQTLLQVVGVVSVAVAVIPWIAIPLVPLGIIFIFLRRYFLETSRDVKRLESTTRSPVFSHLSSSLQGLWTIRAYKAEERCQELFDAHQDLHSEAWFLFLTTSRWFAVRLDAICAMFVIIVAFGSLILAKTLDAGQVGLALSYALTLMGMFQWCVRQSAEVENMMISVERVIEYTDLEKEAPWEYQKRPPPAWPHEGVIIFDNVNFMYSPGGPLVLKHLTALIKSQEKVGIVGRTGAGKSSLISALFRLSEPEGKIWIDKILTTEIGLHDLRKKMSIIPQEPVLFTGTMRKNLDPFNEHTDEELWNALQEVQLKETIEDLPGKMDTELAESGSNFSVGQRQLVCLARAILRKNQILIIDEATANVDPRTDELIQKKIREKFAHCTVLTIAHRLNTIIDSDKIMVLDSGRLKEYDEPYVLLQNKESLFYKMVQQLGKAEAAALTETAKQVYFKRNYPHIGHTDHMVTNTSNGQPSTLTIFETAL
Description: In the vesicular transport inhibition assay (for BSEP, MRP) compounds were incubated with membrane vesicle preparations and the probe substrate. Incubations were carried out in the presence of 4 mM ATP or AMP to distinguish between transporter-mediated uptake and passive diffusion into the vesicles. For MRP2 and MRP3, reactions were carried out in the presence of 2 mM glutathione. Compounds were added to the reaction mixture in 0.75 μL of solvent (1% of the final incubation volume). […] Reactions were initiated by the addition of 25 μL of 12 mM MgATP (or 12 mM AMP in assay buffer as a background control) and preincubated separately. Reactions were quenched by the addition of 200 μL of ice-cold washing buffer and immediate filtration via glass fiber filters mounted on a 96-well plate (filter plate). The filters were washed (5 × 200 μL of ice-cold washing buffer), dried, and the amount of substrate inside the filtered vesicles was determined by liquid scintillation counting.

[3] = tested on: HepG2 cells; test: Respiration in hepatocytes (Seahorse XF Mito stress test); type: cell-based, human; settings: for oxygen consumption rate, mito stress tracing: Fig2 A; for ECAR (Extracellular Acidification Rate) / OCR (Basal Oxygen Consumption rate): replicates

CC#C[C@@H](CC(=O)O)c1ccc(OCC(C)=C(C)C)cc1 [CPL207280]
IC50 [1]: 17.9 µM
fold less inhibitory potency than TAK-875, OATP1B1 [1]: at least 10 fold
IC50 [2]: 131 µM
fold less inhibitory potency than TAK-875, MRP4 [2]: at least 10 fold
Accumulation (counts per minute; CPM) with AMP ([2]; conc 0.10 µM): 1154 CPM and 1110 CPM
Accumulation (counts per minute; CPM) with ATP ([2]; conc 0.10 µM): 5335 CPM and 5537 CPM
Accumulation (counts per minute; CPM) with AMP ([2]; conc 1.00 µM): 1207 CPM and 1074 CPM
Accumulation (counts per minute; CPM) with ATP ([2]; conc 1.00 µM): 5159 CPM and 5701 CPM
Accumulation (counts per minute; CPM) with AMP ([2]; conc 3.00 µM): 1157 CPM and 1113 CPM
Accumulation (counts per minute; CPM) with ATP ([2]; conc 3.00 µM): 5157 CPM and 5321 CPM
Accumulation (counts per minute; CPM) with AMP ([2]; conc 10.00 µM): 1132 CPM and 1046 CPM
Accumulation (counts per minute; CPM) with ATP ([2]; conc 10.00 µM): 4884 CPM and 5225 CPM
Accumulation (counts per minute; CPM) with AMP ([2]; conc 30.00 µM): 1054 CPM and 1003 CPM
Accumulation (counts per minute; CPM) with ATP ([2]; conc 30.00 µM): 4460 CPM and 4110 CPM
Accumulation (counts per minute; CPM) with AMP ([2]; conc 100.00 µM): 1090 CPM and 1013 CPM
Accumulation (counts per minute; CPM) with ATP ([2]; conc 100.00 µM): 3600 CPM and 3817 CPM
Accumulation (counts per minute; CPM) with AMP ([2]; conc 300.00 µM): 1018 CPM and 920 CPM
Accumulation (counts per minute; CPM) with ATP ([2]; conc 300.00 µM): 2078 CPM and 2196 CPM
oxygen consumption rate, mito stress tracing ([3]; HepG2, 0.3 uM, 34.6705 min): 80.249 and 97.2155 and 86.8514
oxygen consumption rate, mito stress tracing ([3]; HepG2, 0.3 uM, 41.3548 min): 35.437 and 46.6744 and 43.9128
oxygen consumption rate, mito stress tracing ([3]; HepG2, 0.3 uM, 47.9665 min): 35.8498 and 44.0725 and 43.5554
oxygen consumption rate, mito stress tracing ([3]; HepG2, 0.3 uM, 54.5812 min): 34.6812 and 46.6208 and 43.7024
oxygen consumption rate, mito stress tracing ([3]; HepG2, 0.3 uM, 61.2916 min): 130.123 and 163.716 and 142.011
oxygen consumption rate, mito stress tracing ([3]; HepG2, 0.3 uM, 67.9128 min): 106.485 and 133.91 and 115.698
oxygen consumption rate, mito stress tracing ([3]; HepG2, 0.3 uM, 74.5347 min): 96.5173
oxygen consumption rate, mito stress tracing ([3]; HepG2, 1 uM, 34.6705 min): 100.011 and 78.8082 and 81.9508
oxygen consumption rate, mito stress tracing ([3]; HepG2, 1 uM, 41.3548 min): 47.2411 and 41.158 and 37.0741
oxygen consumption rate, mito stress tracing ([3]; HepG2, 1 uM, 47.9665 min): 46.2402 and 40.9403 and 37.3629
oxygen consumption rate, mito stress tracing ([3]; HepG2, 1 uM, 54.5812 min): 47.0103 and 40.8472 and 36.7203
oxygen consumption rate, mito stress tracing ([3]; HepG2, 1 uM, 61.2916 min): 170.96 and 125.782 and 138.858
oxygen consumption rate, mito stress tracing ([3]; HepG2, 1 uM, 67.9128 min): 139.39 and 102.287 and 110.384
oxygen consumption rate, mito stress tracing ([3]; HepG2, 1 uM, 74.5347 min): 123.934 and 92.2309 and 99.0802
oxygen consumption rate, mito stress tracing ([3]; HepG2, 10 uM, 34.6705 min): 110.191 and 84.6025 and 86.6099
oxygen consumption rate, mito stress tracing ([3]; HepG2, 10 uM, 41.3548 min): 53.0343 and 43.3081 and 40.0605
oxygen consumption rate, mito stress tracing ([3]; HepG2, 10 uM, 47.9665 min): 52.304 and 44.0598 and 40.3019
oxygen consumption rate, mito stress tracing ([3]; HepG2, 10 uM, 54.5812 min): 53.3375 and 43.9407 and 40.3833
oxygen consumption rate, mito stress tracing ([3]; HepG2, 10 uM, 61.2916 min): 205.106 and 144.168 and 145.662
oxygen consumption rate, mito stress tracing ([3]; HepG2, 10 uM, 67.9128 min): 156.881 and 114.329 and 108.157
oxygen consumption rate, mito stress tracing ([3]; HepG2, 10 uM, 74.5347 min): 137.02 and 102.413 and 95.1094
oxygen consumption rate, mito stress tracing ([3]; HepG2, 30 uM, 34.6705 min): 92.7755 and 86.7994 and 98.474
oxygen consumption rate, mito stress tracing ([3]; HepG2, 30 uM, 41.3548 min): 47.1023 and 44.4378 and 48.0839
oxygen consumption rate, mito stress tracing ([3]; HepG2, 30 uM, 47.9665 min): 46.5085 and 44.5297 and 49.242
oxygen consumption rate, mito stress tracing ([3]; HepG2, 30 uM, 54.5812 min): 47.3133 and 45.4103 and 49.1801
oxygen consumption rate, mito stress tracing ([3]; HepG2, 30 uM, 61.2916 min): 166.246 and 150.833 and 168.619
oxygen consumption rate, mito stress tracing ([3]; HepG2, 30 uM, 67.9128 min): 122.701 and 115.579 and 125.99
oxygen consumption rate, mito stress tracing ([3]; HepG2, 30 uM, 74.5347 min): 107.636 and 100.89 and 113.574
oxygen consumption rate, mito stress tracing ([3]; HepG2, 100 uM, 34.6705 min): 67.4412 and 69.6068 and 55.4444
oxygen consumption rate, mito stress tracing ([3]; HepG2, 100 uM, 41.3548 min): 37.8597 and 39.5148 and 33.1927
oxygen consumption rate, mito stress tracing ([3]; HepG2, 100 uM, 47.9665 min): 37.9692 and 40.1535 and 34.8525
oxygen consumption rate, mito stress tracing ([3]; HepG2, 100 uM, 54.5812 min): 38.5804 and 40.5605 and 35.0114
oxygen consumption rate, mito stress tracing ([3]; HepG2, 100 uM, 61.2916 min): 98.1667 and 106.839 and 80.4832
oxygen consumption rate, mito stress tracing ([3]; HepG2, 100 uM, 67.9128 min): 74.25 and 83.2846 and 59.4526
ECAR (Extracellular Acidification Rate) ([3]; HepG2, 0.3 uM): 0.9978 and 0.9743 and 0.8743
OCR (Basal Oxygen Consumption rate) ([3]; HepG2, 0.3 uM): 0.9555 and 0.9023 and 1.068
ECAR (Extracellular Acidification Rate) ([3]; HepG2, 1 uM): 0.9613 and 0.9697 and 0.955
OCR (Basal Oxygen Consumption rate) ([3]; HepG2, 1 uM): 0.9695 and 0.8683 and 1.043
ECAR (Extracellular Acidification Rate) ([3]; HepG2, 10 uM): 1.014 and 1.053 and 0.9962
OCR (Basal Oxygen Consumption rate) ([3]; HepG2, 10 uM): 1.0176 and 0.8931 and 1.143
ECAR (Extracellular Acidification Rate) ([3]; HepG2, 30 uM): 0.995 and 1.079 and 1.004
OCR (Basal Oxygen Consumption rate) ([3]; HepG2, 30 uM): 1.014 and 0.9586 and 1.1505
ECAR (Extracellular Acidification Rate) ([3]; HepG2, 100 uM): 1.11 and 1.113 and 1.179
OCR (Basal Oxygen Consumption rate) ([3]; HepG2, 100 uM): 1.005 and 0.9369 and 1.04
EC50 of acidification of media (ECAR) ([3]; HepG2, Seahorse XF): absent
effect on ATP synthesis ([3]; HepG2, Seahorse XF): did not alter ATP synthesis
effect on oxygen consumption rate / basal respiration ([3]; HepG2, Seahorse XF): reduced basal and maximal respiration at the highest concentration of 100 μM
effect on respiration ([3]; hepatocytes, Seahorse XF, 100 μM): slight respiration inhibition
